Reference: patent US9351983B2, “Use of glycerophosphoinositols for the treatment of septic shock” (CONSIGLIO NAZIONALE DELLE RICERCHE, priority 2012, dated 2016)

Key:
human monocytes = experiment: In vitro model of human innate immunity inflammation: morphology and viability by light microscopy; assay type: cell-based; details: 300 μM, added 20 minutes before LPS, IL-10 and TGF-β; images at 2 h, 14 h, 24 h, 48 h; one donor, preliminary
Source text: FIG. 13—The in vitro model of human innate immunity inflammation. Schematic representation and timing of the in vitro stimulation of human monocytes. In order to mimic the microenvironmental changes and the timing of human host response that covers the different phases of the inflammatory reaction, from recruitment and onset, to development and resolution of inflammation, cultured cells have been exposed to sequential changes of microenvironmental conditions. Monocytes in culture were exposed to chemokine C-C motif ligand 2 (CCL2), responsible for monocytes recruitment to sites of injury through endothelial cells adhesion, lipopolysaccharide (LPS), as a pathogen insult, tumor necrosis factor α (TNFα) and interferon γ (IFN-γ) as inducers of acute phase of inflammation and finally with interleukin 10 (IL-10) and transforming growth factor β (TGF-β), responsible for the resolution of inflammation. In detail: at time zero freshly isolated human monocytes were exposed to CCL2 (20 ng/ml) at 37° C. […]
Freshly isolated human monocytes, which have been used for all the above-mentioned experiments, were purified from buffy coat prepared at I.N.T. Pascale in Naples. […] The viability of cells was determined by trypan blue staining. The purity of isolated cells (98%) was microscopically detected after centrifugation and staining with modified Wright-Giemsa dye (Diff Quick, Medion Diagnostic AG). […]

Interleukin-6 (IL-6) = experiment: In vitro model of human inflammation: ELISA of IL-6 in supernatants; assay type: cell-based; details: 300 μM; full inflammation (4 h and 14 h); one donor
Protocol: FIG. 16—Glycerophosphoinositol inhibits the release of cytokines. Human monocytes were purified from one donor and treated according to the in vitro model of human inflammation, previously described, in absence (blue line) or in presence (red line) of 300 μM glycerophosphoinositol. In detail, glycerophosphoinositol was added to cultured cells 20 minutes before LPS, IL-10 and TGF-β, that is, again after each wash. The growth medium was collected at time 4 h, 14 h, 24 h, 48 h; growth medium from freshly isolated monocytes was considered as control at time 0 h. The levels of cytokines Interleukin 1β (IL-1β), Tumor necrosis factor α (TNFα) and Interleukin-6 (IL-6) in the supernatants were measured by enzyme-linked immunosorbent assay (ELISA kit, R&D System) according to manufacturer's protocol. An increased release of these cytokines was observed during the full inflammation (time 4 h and 14 h) as expected. […]
Extracellular levels of IL-1β, TNFα and IL-6 were measured by enzyme-linked immunosorbent assay (ELISA) from R&D System. […] Then the recovered supernatants were loaded onto plates according to manufacturer's protocol and the concentration of the protein was assessed spectrophotometrically.

## O=P(O)(OCC(O)CO)OC1C(O)C(O)C(O)C(O)C1O (centres unmarked) [GroPIns, glycerophosphoinositol]
Human monocytes
  cellular viability (light microscopy): cellular viability increased
Interleukin-6 (IL-6)
  amount of IL-6 in the supernatants: significantly reduced the amount of these cytokines in the supernatants
